Two compounds from US6043279A, “Compounds having selective activity for retinoid X receptors, and means for modulation of processes mediated by retinoid X receptors” (priority 1997, dated 2000) can be followed below.

Structures are written as SMILES.

Holding throughout (format): cell-based
Test [1] concerns the target T1, RXRα (Homo sapiens, UniProt P19793).
T1 construct: expressed in transfected cells; host or cells: CV-1 (monkey kidney)
T1 sequence (P19793 1-462): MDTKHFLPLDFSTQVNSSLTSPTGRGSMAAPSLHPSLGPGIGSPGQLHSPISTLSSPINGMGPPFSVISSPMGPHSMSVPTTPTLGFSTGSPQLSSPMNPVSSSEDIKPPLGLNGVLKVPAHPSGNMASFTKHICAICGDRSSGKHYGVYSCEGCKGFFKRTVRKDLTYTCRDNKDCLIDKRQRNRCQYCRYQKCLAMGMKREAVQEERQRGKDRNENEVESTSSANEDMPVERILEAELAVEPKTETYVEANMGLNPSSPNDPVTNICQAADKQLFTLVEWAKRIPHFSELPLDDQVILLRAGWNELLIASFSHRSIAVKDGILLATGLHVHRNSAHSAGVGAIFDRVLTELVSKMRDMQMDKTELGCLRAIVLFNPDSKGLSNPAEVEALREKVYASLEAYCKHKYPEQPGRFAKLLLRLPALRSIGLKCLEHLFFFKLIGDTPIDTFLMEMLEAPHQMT
Nature of the test: co-transfection (cis-trans) assay in CV-1 cells, RXRα. The note with it: for Emax: CV-1, maximal response relative to all-trans-retinoic acid at 10^-5 M, read-out: Efficacy RXRα; for EC50: CV-1 cells, luciferase reporter, concentration giving 50% of maximal observed response, read-out: Potency (nM) RXRα. The source says: (§1) The co-transfection assay provides a mechanism to evaluate the ability of a compound to modulate the transcription response initiated by an intracellular receptor. […] Berger et al., J. Steroid Biochem. Molec.
(§2) Briefly, the co-transfection assay involves the introduction of two plasmids by transient transfection into a retinoid receptor-negative mammalian cell background. The first plasmid contains a retinoid receptor cDNA and directs constitutive expression of the encoded receptor. The second plasmid contains a cDNA that encodes for a readily quantifiable protein, e.g., firefly luciferase or chloramphenicol acetyl transferase (CAT), under control of a promoter containing a retinoid acid response element, which confers retinoid dependence on the transcription of the reporter. In this co-transfection assay, all retinoid receptors respond to all-trans-retinoic acid in a similar fashion. This assay can be used to accurately measure efficacy and potency of retinoic acid and synthetic retinoids as ligands that interact with the individual retinoid receptor subtypes.
(§3) Accordingly, synthetic retinoid compounds of the current invention were evaluated for their interaction with retinoid receptor subtypes using the co-transfection assay in which CV-1 cells were co-transfected with one of the retinoid receptor subtypes, a reporter construct, and an internal control to allow normalization of the response for transfection efficiency. The following example is illustrative.
(§4) Retinoids: All-trans-retinoic acid (RA) and 13-cis-retinoic acid (13-cis-RA) were obtained from Sigma. […] Retinoids were dissolved in dimethylsulfoxide for use in the transcriptional activation assays.
(§5) Co-transfection Assay In CV-1 Cells: A monkey kidney cell line, CV-1, was used in the cis-trans assay. Cells were transfected with two plasmids. […] The cis-vector contains an easily assayable gene product, in this case the firefly luciferase, coupled to a retinoid-responsive promoter, i.e., an RARE or RXRE. Addition of retinoic acid or an appropriate synthetic retinoid results in the formation of a retinoid-RAR or -RXR complex that activates the expression of luciferase gene, causing light to be emitted from cell extracts. The level of luciferase activity is directly proportional to the effectiveness of the retinoid-receptor complex in activating gene expression. This sensitive and reproducible co-transfection approach permits the identification of retinoids that interact with the different receptor isoforms.
(§6) Cells were cultured in DMEM supplemented with 10% charcoal resin-stripped fetal bovine serum, and experiments were conducted in 96-well plates. […] Cells were transfected for 6 h and then washed to remove the precipitate. The cells were then incubated for 36 h with or without retinoid. […]
On the technique in general: In a reporter assay the amount or activity of a reporter protein is the signal.

Test [2] addresses T2, RXRβ (Mus musculus, UniProt P28704).
T2 construct: expressed in transfected cells; host or cells: CV-1 (monkey kidney)
T2 sequence (P28704 1-520): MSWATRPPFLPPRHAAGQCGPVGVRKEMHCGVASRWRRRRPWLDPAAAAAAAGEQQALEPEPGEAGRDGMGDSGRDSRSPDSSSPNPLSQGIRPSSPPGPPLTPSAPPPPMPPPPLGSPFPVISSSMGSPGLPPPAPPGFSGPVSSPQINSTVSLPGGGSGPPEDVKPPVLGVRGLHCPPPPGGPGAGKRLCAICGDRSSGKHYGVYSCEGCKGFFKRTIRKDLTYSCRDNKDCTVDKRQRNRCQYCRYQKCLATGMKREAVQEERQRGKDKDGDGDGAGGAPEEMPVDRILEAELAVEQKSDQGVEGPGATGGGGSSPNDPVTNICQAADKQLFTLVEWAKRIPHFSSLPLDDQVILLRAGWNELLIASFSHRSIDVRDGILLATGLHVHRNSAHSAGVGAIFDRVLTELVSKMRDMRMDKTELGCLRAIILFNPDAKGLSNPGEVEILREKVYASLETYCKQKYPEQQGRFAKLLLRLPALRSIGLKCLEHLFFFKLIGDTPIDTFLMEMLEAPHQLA
Nature of the test: co-transfection (cis-trans) assay in CV-1 cells, RXRβ. The note with it: for Emax: CV-1, maximal response relative to all-trans-retinoic acid at 10^-5 M, read-out: Efficacy RXRβ; for EC50: CV-1 cells, luciferase reporter, concentration giving 50% of maximal observed response, read-out: Potency (nM) RXRβ.
From the text: as §1, §2, §3, §4, §5
Cells were cultured in DMEM supplemented with 10% charcoal resin-stripped fetal bovine serum, and experiments were conducted in 96-well plates. […] Cells were transfected for 6 h and then washed to remove the precipitate. The cells were then incubated for 36 h with or without retinoid. After the transfection, all subsequent steps were performed on a Beckman Biomek Automated Workstation. […] All determinations were performed in triplicate in two independent experiments and were normalized for transfection efficiency by using β-galactosidase as the internal control. […] Efficacy values less than 5% are not statistically different than the 0% background.

In test [3] the target is T3, RARα (Homo sapiens, UniProt P10276).
T3 construct: expressed in transfected cells; host or cells: CV-1 (monkey kidney)
T3 sequence (P10276 1-462): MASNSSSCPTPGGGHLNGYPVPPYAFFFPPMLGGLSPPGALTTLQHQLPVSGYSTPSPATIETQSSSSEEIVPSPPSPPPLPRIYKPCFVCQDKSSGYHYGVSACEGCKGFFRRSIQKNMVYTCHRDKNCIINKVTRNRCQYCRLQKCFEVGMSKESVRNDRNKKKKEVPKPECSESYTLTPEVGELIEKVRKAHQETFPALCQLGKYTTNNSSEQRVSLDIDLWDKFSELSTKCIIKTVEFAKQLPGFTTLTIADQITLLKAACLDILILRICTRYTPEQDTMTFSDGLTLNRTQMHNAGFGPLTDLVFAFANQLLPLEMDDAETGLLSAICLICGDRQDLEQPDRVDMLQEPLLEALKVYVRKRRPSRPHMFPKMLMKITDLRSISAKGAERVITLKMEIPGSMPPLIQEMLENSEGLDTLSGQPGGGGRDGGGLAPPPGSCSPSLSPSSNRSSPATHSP
The test is described as follows: co-transfection (cis-trans) assay in CV-1 cells, RARα. The note with it: for Emax: CV-1, maximal response relative to all-trans-retinoic acid at 10^-5 M, read-out: Efficacy RARα; for EC50: CV-1 cells, luciferase reporter, concentration giving 50% of maximal observed response, read-out: Potency (nM) RARα.
From the text: as §1, §2, §3, §4, §5, §6

Take `C=C(c1ccc(C(=O)O)cc1)c1ccc(C(C)(C)C)cc1C` [Compound 133, 4-[1-(2-methyl-4-t-butylphenyl)ethenyl]benzoic acid]: the results for the Emax in test [1], in test [2] and in test [3] were 86%, 56% and < 2%, respectively. The EC50 is 440 nM in test [1], 470 nM in test [2] and > 10000 nM in test [3].
For `Cc1cc(C(C)(C)C)ccc1C(=NO)c1ccc(C(=O)O)cc1` [Compound 137, 4-[(2-methyl-4-t-butylphenyl)carbonyl]benzoic acid oxime], the Emax in test [1] is 47%; in test [2] it was 57%; in test [3] it was < 2%. For the same compound, the EC50 is 270 nM in test [1], 270 nM in test [2] and > 10000 nM in test [3].
